{
  "source": "the METLIN SMRT retention time set (Domingo-Almenara et al. 2019)",
  "data": [
    {"assay": "gradient 5% acetonitrile 3 min, to 50% in 2 min, to 85% in 15 min, held 3 min, 100 µL/min", "conditions": "column: Zorbax Extend-C18 2.1 x 50 mm; eluents: water / acetonitrile, 0.1% formic acid", "method_in_brief": "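Data were gathered over 3 months by HPLC coupled to a quadrupole time-of-flight mass spectrometer, operated in positive and negative ionization mode. Mixtures of ~100 pure standards ran on a Zorbax Extend-C18 column (2.1 × 50 mm, 1.8 μm) at 100 μL/min, with water and acetonitrile each containing 0.1% formic acid and dead and dwell volumes of 40 μL and 900 μL. Retention time was read from adduct peaks picked by computer and checked manually.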", "units": {"RP-LC retention time": "s"}, "values": [
      {"smiles": "COc1cccc(Oc2nccn3c(=O)n(CC(=O)Nc4ccccc4C(F)(F)F)nc23)c1", "RP-LC retention time": 850},
      {"smiles": "O=S(=O)(Cc1cccc(Cl)c1)N1CCc2nc[nH]c2C1", "RP-LC retention time": 616},
      {"smiles": "CC(C(=O)N1CCCc2ccccc21)n1cnc2nc3c(cc2c1=O)CCCC3", "note": "(stereo not given)", "RP-LC retention time": 818},
      {"smiles": "CC(C)CN1CCn2cc(C(=O)NC(C)c3ccccc3)nc2C1", "note": "(stereo not given)", "RP-LC retention time": 613},
      {"smiles": "O=C1COc2ccc(S(=O)(=O)N3CCC(C(=O)NCc4cccs4)CC3)cc2N1", "RP-LC retention time": 702},
      {"smiles": "Cc1cccc(CN2CCn3c(nnc3[C@@H]3C[C@@H](O)CN3Cc3cccnc3)C2)c1", "RP-LC retention time": 586},
      {"smiles": "COc1ccc(S(=O)(=O)Nc2ccc(C)n(CC(=O)O)c2=O)cc1", "RP-LC retention time": 678},
      {"smiles": "Cc1cc(C2CCCN2C(=O)Cc2ccc(Cl)cc2)no1", "note": "(stereo not given)", "RP-LC retention time": 824},
      {"smiles": "COc1ccc(N2CCN(C(=O)c3[nH]c(C)c(S(=O)(=O)N4CCC(C)CC4)c3C)CC2)cc1", "RP-LC retention time": 896},
      {"smiles": "CCn1cnc2cc(-c3noc(CNC(=O)Cc4ccc(Cl)cc4)n3)ccc21", "RP-LC retention time": 658},
      {"smiles": "O=C(NC1CCN(Cc2ccccc2)CC1)C1CCCN(c2ncc(-c3ccccc3)cn2)C1", "note": "(stereo not given)", "RP-LC retention time": 720},
      {"smiles": "CC(=O)N1c2ccc(S(=O)(=O)N3CCCCC3)cc2CC1C(=O)NCCN(C)C1CCCCC1", "note": "(stereo not given)", "RP-LC retention time": 655},
      {"smiles": "Cc1cc(C)cc(-c2nc(-c3ccc4c(c3)oc(=O)n4C)no2)c1", "RP-LC retention time": 1060},
      {"smiles": "Cc1cc(NC(=O)C2CCN(C(=O)c3c[nH]c4ccccc34)CC2)no1", "RP-LC retention time": 639},
      {"smiles": "Cc1cc(C)cc(Nc2nc(C)cc3nn(CC(=O)N(C)c4ccccc4)c(=O)n23)c1", "RP-LC retention time": 1160},
      {"smiles": "Cn1cc(CCN2CCC(C(=O)NCc3ccccc3Cl)CC2)c2cccnc21", "RP-LC retention time": 617},
      {"smiles": "COc1ccc(-c2cc3c4nnc(CCC(=O)N5CCN(c6ccccn6)CC5)n4ccn3n2)cc1", "RP-LC retention time": 605},
      {"smiles": "CN1C(=O)c2ccccc2Sc2cc(-c3noc(CNC(=O)c4ccco4)n3)ccc21", "RP-LC retention time": 702},
      {"smiles": "CCc1c(C(=O)O)nnn1-c1cc(OC)cc(OC)c1", "RP-LC retention time": 730},
      {"smiles": "Cc1noc(C)c1CCC(=O)NCCOc1ccc2nnc(-c3cccc(F)c3)n2n1", "RP-LC retention time": 633},
      {"smiles": "Cn1nccc1-c1cccc(-c2noc(CNC(=O)c3ccco3)n2)c1", "RP-LC retention time": 733},
      {"smiles": "Cc1ccccc1-c1nnc(CSc2nnc(NC(=O)c3c(F)cccc3F)s2)o1", "RP-LC retention time": 905},
      {"smiles": "COc1ccc(CC(=O)N2CCn3cnnc3C2)cc1Cl", "RP-LC retention time": 621},
      {"smiles": "COc1ccccc1C(=O)Nc1c2c(nn1C(C)(C)C)CS(=O)(=O)C2", "RP-LC retention time": 740},
      {"smiles": "COc1ccccc1CNS(=O)(=O)c1ccc(F)c(C(=O)Nc2cc(C)ccc2C)c1", "RP-LC retention time": 967},
      {"smiles": "O=C(CCCSc1ccc(NC(=O)c2ccc(F)cc2)nn1)Nc1nccs1", "RP-LC retention time": 745},
      {"smiles": "CC(C)NC(=O)c1ccc(OCC2CCCN(C(=O)c3cccc(F)c3)C2)cc1", "note": "(stereo not given)", "RP-LC retention time": 846},
      {"smiles": "Cc1ccc(CNC(=O)C2CCCN(c3ncc(-c4cccc(F)c4)cn3)C2)o1", "note": "(stereo not given)", "RP-LC retention time": 851},
      {"smiles": "O=C(Nc1ccc(F)cc1F)N1CCN(c2cc(-c3ccncc3)[nH]n2)CC1", "RP-LC retention time": 596},
      {"smiles": "Cn1cc(C(=O)Nc2ccc(C(F)(F)F)cc2)c2cccnc21", "RP-LC retention time": 909},
      {"smiles": "CC(C)c1ccc(-c2noc(N3CCC(C(=O)NC4CCCCC4)CC3)n2)cc1", "RP-LC retention time": 1180},
      {"smiles": "Cc1nc(-c2csc(S(=O)(=O)N3CCCC(C(=O)Nc4cccc(F)c4)C3)c2)no1", "note": "(stereo not given)", "RP-LC retention time": 978},
      {"smiles": "Cn1c(C2CCN(C(=O)Nc3cccc(Br)c3)CC2)cc(=O)n2nccc12", "RP-LC retention time": 714},
      {"smiles": "COC(=O)c1ccc(NC(=O)Cn2cccc(-c3nc(-c4ccccc4)no3)c2=O)cc1", "RP-LC retention time": 829},
      {"smiles": "COC(=O)CNC(=O)N1CCN(c2nc3ccccc3n2Cc2ccccc2)CC1", "RP-LC retention time": 644},
      {"smiles": "CCc1c(C(=O)O)nnn1-c1ccc(C)c(F)c1", "RP-LC retention time": 744},
      {"smiles": "CN(C)C(=O)C1CCN(S(=O)(=O)Cc2ccc(F)cc2)CC1", "RP-LC retention time": 691},
      {"smiles": "O=c1c2nc(-c3ccc(Br)cc3)cn2ccn1-c1cccc(F)c1", "RP-LC retention time": 898},
      {"smiles": "CC1CCN(c2nc3c(c(=O)n(C)c(=O)n3C)n2Cc2ccc(Br)cc2)CC1", "RP-LC retention time": 1250},
      {"smiles": "CCC(C(=O)N1CCn2c(C)nnc2C1)c1ccccc1", "note": "(stereo not given)", "RP-LC retention time": 643},
      {"smiles": "CCOC(=O)C1=C(CN2CCCCCC2)NC(=O)NC1c1ccc(OC(C)C)cc1", "note": "(stereo not given)", "RP-LC retention time": 679},
      {"smiles": "Cc1cccc(CNC2=NCCNC23CCN(S(=O)(=O)c2cc(C)cc(C)c2)CC3)c1", "RP-LC retention time": 787},
      {"smiles": "O=C(CN1CCc2[nH]c3c(F)c(Cl)ccc3c(=O)c2C1)Nc1ccc2c(c1)OCCO2", "RP-LC retention time": 643},
      {"smiles": "Cc1ccn2cc(C(=O)NC3CCCCC3)nc2c1", "RP-LC retention time": 627},
      {"smiles": "Cc1cccc(NC(=O)C2CCN(S(=O)(=O)c3cc(C(=O)N4CCCCCC4)cs3)CC2)n1", "RP-LC retention time": 769},
      {"smiles": "CCCN1C(=O)COc2ccc(-c3noc(-c4ccccc4Cl)n3)cc21", "RP-LC retention time": 1240},
      {"smiles": "O=C(Nc1ccnc2ccc(Cl)cc12)c1ccc(S(=O)(=O)NC2CC2)cc1", "RP-LC retention time": 656},
      {"smiles": "COc1cccc(CNC(=O)C2CCCN(S(=O)(=O)c3cc(-c4noc(C)n4)cs3)C2)c1", "note": "(stereo not given)", "RP-LC retention time": 874},
      {"smiles": "COc1ccc(CC(=O)Nc2ccc(-c3nc(Cn4cc(C)cn4)c(C)o3)cc2)cc1", "RP-LC retention time": 889},
      {"smiles": "CNC(=O)c1cnn(-c2ccc(-c3nc(C4CC4)no3)cn2)c1C", "RP-LC retention time": 746},
      {"smiles": "COc1ccc(-n2ccnc(NC(=O)Nc3ccc(F)c(Cl)c3)c2=O)cc1", "RP-LC retention time": 1020},
      {"smiles": "COc1cc(Cl)c(C)cc1NC(=O)Cc1nnc(-c2ccc3ncccc3c2)o1", "RP-LC retention time": 848},
      {"smiles": "CN(CC(=O)N1CC=C(c2ccccc2)CC1)S(=O)(=O)c1ccc2c(c1)CCCC(=O)N2", "RP-LC retention time": 746},
      {"smiles": "COCC(C)(O)CNC(=O)C(=O)NCc1ccc(C)cc1", "note": "(stereo not given)", "RP-LC retention time": 674},
      {"smiles": "CO[C@H]1CN(C2CCN(S(=O)(=O)c3ccc(C#N)cc3)CC2)[C@H]1c1cccnc1", "RP-LC retention time": 609},
      {"smiles": "Cc1nnc(SCC(=O)Nc2nc(-c3ccccc3)ns2)s1", "RP-LC retention time": 852},
      {"smiles": "CCCSCCCNC(=O)Cn1cnc2nc3c(cc2c1=O)CC(C)CC3", "note": "(stereo not given)", "RP-LC retention time": 778},
      {"smiles": "COc1cc2c(cc1C(=O)NCc1ccc3c(c1)CCCO3)OCCCO2", "RP-LC retention time": 920},
      {"smiles": "O=c1n(Cc2cccc(Cl)c2)nc2c(S(=O)(=O)N3CCc4ccccc4C3)cccn12", "RP-LC retention time": 1010},
      {"smiles": "Cc1ccc(S(=O)(=O)N2CCC3(CC2)NCCN=C3NCc2ccccc2F)c(C)c1", "RP-LC retention time": 747},
      {"smiles": "COc1ccc(-c2nc(N3CCCCC3)ncc2C(=O)O)cc1", "RP-LC retention time": 923},
      {"smiles": "O=C(c1ccc(C(F)(F)F)cc1)N1CCN(c2nnc3ccccn23)CC1", "RP-LC retention time": 698},
      {"smiles": "COc1ccc(S(=O)(=O)N2CCCC(C(=O)NCCc3ccc(OC)c(OC)c3)C2)cc1C", "note": "(stereo not given)", "RP-LC retention time": 870},
      {"smiles": "Cc1ccc(C(=O)N[C@@H]2CN(S(C)(=O)=O)C[C@H]2CN(C)C)s1", "RP-LC retention time": 582},
      {"smiles": "O=C1NCCCCCN(C(=O)Cn2c(=O)oc3ccccc32)[C@@H]2C[C@@H](C(=O)N3CCc4ccccc4C3)C[C@H]12", "RP-LC retention time": 864}
    ]}
  ]
}
